Measured values from BindingDB's records for PubMed 35660250 (COMSATS University Islamabad, 2022).

Legend:
[1] = Antagonist activity against human P2X4R stably transfected in human 1321N1 cells assessed as ATP EC50 at 0.1 uM incubated for 30 mins by Fura-2 AM staining based calcium influx assay
[2] = Antagonist activity against human P2X4R stably transfected in human 1321N1 cells assessed as ATP EC50 at 0.05 uM incubated for 30 mins by Fura-2 AM staining based calcium influx assay
[3] = Antagonist activity against human P2X4R stably transfected in human 1321N1 cells assessed as ATP EC50 at 0.2 uM incubated for 30 mins by Fura-2 AM staining based calcium influx assay
[4] = Antagonist activity against human P2X7R stably transfected in human 1321N1 cells assessed as BzATP EC50 at 0.05 uM incubated for 30 mins by Fura-2 AM staining based calcium influx assay
[5] = Antagonist activity against human P2X7R stably transfected in human 1321N1 cells assessed as BzATP EC50 at 0.1 uM incubated for 30 mins by Fura-2 AM staining based calcium influx assay
[6] = Antagonist activity against human P2X7R stably transfected in human 1321N1 cells assessed as BzATP EC50 at 0.2 uM incubated for 30 mins by Fura-2 AM staining based calcium influx assay

Row | EC50 [1] | EC50 [2] | EC50 [3] | EC50 [4] | EC50 [5] | EC50 [6] | Structure (SMILES)
1 | 10.1 µM | 10.8 µM | 10.8 µM |  |  |  | O=C(NC(=S)Nc1c(Br)ccc(C(F)(F)F)c1Br)c1ccc2c(c1)OCO2
2 |  |  |  | 8.31 µM | 9.44 µM | 9.14 µM | O=C(NC(=S)Nc1cccc2cccnc12)c1ccc2c(c1)OCO2
